Measurements taken from paper PMC8632988, “Inhibition of SYK and cSrc kinases can protect bone and cartilage in preclinical models of osteoarthritis and rheumatoid arthritis” (Scientific Reports, 2021).

Key:
Assay in all cases: Kinase selectivity profile assay
Format in all cases: biochemical
YES/YES1 = biological target: T1, YES/YES1 (Homo sapiens, UniProt P07947); details: for remaining activity at 0.5 µM: 500 nM, relative to DMSO, read-out: Residual enzymatic activity
T1 construct: purchased Reaction Biology Corporation (Malvern, PA, USA)
Summary of the method: (§1)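 Radiometric kinase assay run by a standard protocol. Unbound phosphate was removed by washing filters in phosphoric acid, and product radioactivity gave percent remaining kinase activity versus DMSO vehicle reactions. Run in duplicate.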

WNK2 = biological target: T2, WNK2 (Homo sapiens, UniProt Q9Y3S1); details: 500 nM; relative to DMSO; read-out: Residual enzymatic activity
T2 construct: purchased Reaction Biology Corporation
Summary of the method: as §1

c-MER = biological target: T3, c-MER (Homo sapiens, UniProt Q12866); details: 500 nM; relative to DMSO; read-out: Residual enzymatic activity
T3 construct: purchased Reaction Biology Corporation
Summary of the method: as §1

KHS/MAP4K5 = biological target: T4, KHS/MAP4K5 (Homo sapiens, UniProt Q9Y4K4); details: 500 nM; relative to DMSO; read-out: Residual enzymatic activity
T4 construct: purchased Reaction Biology Corporation
Summary of the method: as §1

BTK = biological target: T5, BTK (Homo sapiens, UniProt Q06187); details: 500 nM; relative to DMSO; read-out: Residual enzymatic activity
T5 construct: purchased Reaction Biology Corporation
Summary of the method: as §1

MEKK2 = biological target: T6, MEKK2 (Homo sapiens, UniProt Q9Y2U5); details: 500 nM; relative to DMSO; read-out: Residual enzymatic activity
T6 construct: purchased Reaction Biology Corporation
Summary of the method: as §1

TBK1 = biological target: T7, TBK1 (Homo sapiens, UniProt Q9UHD2); details: 500 nM; relative to DMSO; read-out: Residual enzymatic activity
T7 construct: purchased Reaction Biology Corporation
Summary of the method: as §1

PIM2 = biological target: T8, PIM2 (Homo sapiens, UniProt Q9P1W9); details: 500 nM; relative to DMSO; read-out: Residual enzymatic activity
T8 construct: purchased Reaction Biology Corporation
Summary of the method: as §1

EPHA8 = biological target: T9, EPHA8 (Homo sapiens, UniProt P29322); details: 500 nM, relative to DMSO
T9 construct: purchased Reaction Biology Corporation
Summary of the method: as §1

TAK1 = biological target: T10, TAK1 (Homo sapiens, UniProt O43318); details: 500 nM; relative to DMSO; read-out: Residual enzymatic activity
T10 construct: purchased Reaction Biology Corporation
Summary of the method: as §1

PLK1 = biological target: T11, PLK1 (Homo sapiens, UniProt P53350); details: 500 nM; relative to DMSO; read-out: Residual enzymatic activity
T11 construct: purchased Reaction Biology Corporation
Summary of the method: as §1

CDK1/cyclin B = biological target: T12, CDK1/cyclin B (Homo sapiens, UniProt P06493); details: 500 nM; relative to DMSO; read-out: Residual enzymatic activity
T12 construct: purchased Reaction Biology Corporation
Summary of the method: as §1

GSK3b = biological target: T13, GSK3b (Homo sapiens, UniProt P49841); details: 500 nM; relative to DMSO; read-out: Residual enzymatic activity
T13 construct: purchased Reaction Biology Corporation
Summary of the method: as §1

STK39/STLK3 = biological target: T14, STK39/STLK3 (Homo sapiens, UniProt Q9UEW8); details: 500 nM; relative to DMSO; read-out: Residual enzymatic activity
T14 construct: purchased Reaction Biology Corporation
Summary of the method: as §1

MST2/STK3 = biological target: T15, MST2/STK3 (Homo sapiens, UniProt Q13188); details: 500 nM; relative to DMSO; read-out: Residual enzymatic activity
T15 construct: purchased Reaction Biology Corporation
Summary of the method: as §1

CK1g3 = biological target: T16, CK1g3 (Homo sapiens, UniProt Q9Y6M4); details: 500 nM; relative to DMSO; read-out: Residual enzymatic activity
T16 construct: purchased Reaction Biology Corporation
Summary of the method: as §1

c-Kit = biological target: T17, c-Kit (Homo sapiens, UniProt P10721); details: 500 nM, relative to DMSO; for remaining activity at 0.5 µM: read-out: Residual enzymatic activity
T17 construct: purchased Reaction Biology Corporation
Summary of the method: as §1

CLK3 = biological target: T18, CLK3 (Homo sapiens, UniProt P49761); details: 500 nM; relative to DMSO; read-out: Residual enzymatic activity
T18 construct: purchased Reaction Biology Corporation
Summary of the method: as §1

ABL2/ARG = biological target: T19, ABL2/ARG (Homo sapiens, UniProt P42684); details: for remaining activity at 0.5 µM: 500 nM, relative to DMSO, read-out: Residual enzymatic activity
T19 construct: purchased Reaction Biology Corporation (assay service)
Summary of the method: as §1

GRK6 = biological target: T20, GRK6 (Homo sapiens, UniProt P43250); details: 500 nM; relative to DMSO; read-out: Residual enzymatic activity
T20 construct: purchased Reaction Biology Corporation
Summary of the method: as §1

CDK16/cyclin Y = biological target: T21, CDK16/cyclin Y (Homo sapiens, UniProt Q00536); details: 500 nM; relative to DMSO; read-out: Residual enzymatic activity
T21 construct: purchased Reaction Biology Corporation
Summary of the method: as §1

TYRO3/SKY = biological target: T22, TYRO3/SKY (Homo sapiens, UniProt Q06418); details: 500 nM; relative to DMSO; read-out: Residual enzymatic activity
T22 construct: purchased Reaction Biology Corporation
Summary of the method: as §1

TYK1/LTK = biological target: T23, TYK1/LTK (Homo sapiens, UniProt P29376); details: 500 nM; relative to DMSO; read-out: Residual enzymatic activity
T23 construct: purchased Reaction Biology Corporation
Summary of the method: as §1

MINK/MINK1 = biological target: T24, MINK/MINK1 (Homo sapiens, UniProt Q8N4C8); details: 500 nM; relative to DMSO; read-out: Residual enzymatic activity
T24 construct: purchased Reaction Biology Corporation
Summary of the method: as §1

MNK2 = biological target: T25, MNK2 (Homo sapiens, UniProt Q9HBH9); details: 500 nM; relative to DMSO; read-out: Residual enzymatic activity
T25 construct: purchased Reaction Biology Corporation
Summary of the method: as §1

PKCnu/PRKD3 = biological target: T26, PKCnu/PRKD3 (Homo sapiens, UniProt O94806); details: 500 nM; relative to DMSO; read-out: Residual enzymatic activity
T26 construct: purchased Reaction Biology Corporation
Summary of the method: as §1

PKCepsilon = biological target: T27, PKCepsilon (Homo sapiens, UniProt Q02156); details: 500 nM; relative to DMSO; read-out: Residual enzymatic activity
T27 construct: purchased Reaction Biology Corporation
Summary of the method: as §1

LRRK2 = biological target: T28, LRRK2 (Homo sapiens, UniProt Q5S007); details: for remaining activity at 0.5 µM: 500 nM, relative to DMSO, read-out: Residual enzymatic activity
T28 construct: purchased Reaction Biology Corporation (assay service)
Summary of the method: as §1

PKN3/PRK3 = biological target: T29, PKN3/PRK3 (Homo sapiens, UniProt Q6P5Z2); details: 500 nM; relative to DMSO; read-out: Residual enzymatic activity
T29 construct: purchased Reaction Biology Corporation
Summary of the method: as §1

[1] = 10-dose mode, threefold serial dilution from 10 μM

T1 sequence (P07947 whole entry): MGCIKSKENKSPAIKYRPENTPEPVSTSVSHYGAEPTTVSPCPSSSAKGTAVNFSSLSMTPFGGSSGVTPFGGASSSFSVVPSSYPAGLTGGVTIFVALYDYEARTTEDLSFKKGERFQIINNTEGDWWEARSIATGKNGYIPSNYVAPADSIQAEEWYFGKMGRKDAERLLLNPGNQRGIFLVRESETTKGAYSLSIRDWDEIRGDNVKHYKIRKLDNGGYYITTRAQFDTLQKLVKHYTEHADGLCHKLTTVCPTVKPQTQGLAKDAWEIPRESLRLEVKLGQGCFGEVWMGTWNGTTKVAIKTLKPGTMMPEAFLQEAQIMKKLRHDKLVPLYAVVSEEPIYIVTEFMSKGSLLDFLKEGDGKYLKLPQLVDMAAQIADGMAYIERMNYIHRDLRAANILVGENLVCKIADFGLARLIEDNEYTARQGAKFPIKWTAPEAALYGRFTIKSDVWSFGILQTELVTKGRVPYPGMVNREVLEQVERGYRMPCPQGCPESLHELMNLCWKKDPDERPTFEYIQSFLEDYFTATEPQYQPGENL
T28 sequence (Q5S007 whole entry): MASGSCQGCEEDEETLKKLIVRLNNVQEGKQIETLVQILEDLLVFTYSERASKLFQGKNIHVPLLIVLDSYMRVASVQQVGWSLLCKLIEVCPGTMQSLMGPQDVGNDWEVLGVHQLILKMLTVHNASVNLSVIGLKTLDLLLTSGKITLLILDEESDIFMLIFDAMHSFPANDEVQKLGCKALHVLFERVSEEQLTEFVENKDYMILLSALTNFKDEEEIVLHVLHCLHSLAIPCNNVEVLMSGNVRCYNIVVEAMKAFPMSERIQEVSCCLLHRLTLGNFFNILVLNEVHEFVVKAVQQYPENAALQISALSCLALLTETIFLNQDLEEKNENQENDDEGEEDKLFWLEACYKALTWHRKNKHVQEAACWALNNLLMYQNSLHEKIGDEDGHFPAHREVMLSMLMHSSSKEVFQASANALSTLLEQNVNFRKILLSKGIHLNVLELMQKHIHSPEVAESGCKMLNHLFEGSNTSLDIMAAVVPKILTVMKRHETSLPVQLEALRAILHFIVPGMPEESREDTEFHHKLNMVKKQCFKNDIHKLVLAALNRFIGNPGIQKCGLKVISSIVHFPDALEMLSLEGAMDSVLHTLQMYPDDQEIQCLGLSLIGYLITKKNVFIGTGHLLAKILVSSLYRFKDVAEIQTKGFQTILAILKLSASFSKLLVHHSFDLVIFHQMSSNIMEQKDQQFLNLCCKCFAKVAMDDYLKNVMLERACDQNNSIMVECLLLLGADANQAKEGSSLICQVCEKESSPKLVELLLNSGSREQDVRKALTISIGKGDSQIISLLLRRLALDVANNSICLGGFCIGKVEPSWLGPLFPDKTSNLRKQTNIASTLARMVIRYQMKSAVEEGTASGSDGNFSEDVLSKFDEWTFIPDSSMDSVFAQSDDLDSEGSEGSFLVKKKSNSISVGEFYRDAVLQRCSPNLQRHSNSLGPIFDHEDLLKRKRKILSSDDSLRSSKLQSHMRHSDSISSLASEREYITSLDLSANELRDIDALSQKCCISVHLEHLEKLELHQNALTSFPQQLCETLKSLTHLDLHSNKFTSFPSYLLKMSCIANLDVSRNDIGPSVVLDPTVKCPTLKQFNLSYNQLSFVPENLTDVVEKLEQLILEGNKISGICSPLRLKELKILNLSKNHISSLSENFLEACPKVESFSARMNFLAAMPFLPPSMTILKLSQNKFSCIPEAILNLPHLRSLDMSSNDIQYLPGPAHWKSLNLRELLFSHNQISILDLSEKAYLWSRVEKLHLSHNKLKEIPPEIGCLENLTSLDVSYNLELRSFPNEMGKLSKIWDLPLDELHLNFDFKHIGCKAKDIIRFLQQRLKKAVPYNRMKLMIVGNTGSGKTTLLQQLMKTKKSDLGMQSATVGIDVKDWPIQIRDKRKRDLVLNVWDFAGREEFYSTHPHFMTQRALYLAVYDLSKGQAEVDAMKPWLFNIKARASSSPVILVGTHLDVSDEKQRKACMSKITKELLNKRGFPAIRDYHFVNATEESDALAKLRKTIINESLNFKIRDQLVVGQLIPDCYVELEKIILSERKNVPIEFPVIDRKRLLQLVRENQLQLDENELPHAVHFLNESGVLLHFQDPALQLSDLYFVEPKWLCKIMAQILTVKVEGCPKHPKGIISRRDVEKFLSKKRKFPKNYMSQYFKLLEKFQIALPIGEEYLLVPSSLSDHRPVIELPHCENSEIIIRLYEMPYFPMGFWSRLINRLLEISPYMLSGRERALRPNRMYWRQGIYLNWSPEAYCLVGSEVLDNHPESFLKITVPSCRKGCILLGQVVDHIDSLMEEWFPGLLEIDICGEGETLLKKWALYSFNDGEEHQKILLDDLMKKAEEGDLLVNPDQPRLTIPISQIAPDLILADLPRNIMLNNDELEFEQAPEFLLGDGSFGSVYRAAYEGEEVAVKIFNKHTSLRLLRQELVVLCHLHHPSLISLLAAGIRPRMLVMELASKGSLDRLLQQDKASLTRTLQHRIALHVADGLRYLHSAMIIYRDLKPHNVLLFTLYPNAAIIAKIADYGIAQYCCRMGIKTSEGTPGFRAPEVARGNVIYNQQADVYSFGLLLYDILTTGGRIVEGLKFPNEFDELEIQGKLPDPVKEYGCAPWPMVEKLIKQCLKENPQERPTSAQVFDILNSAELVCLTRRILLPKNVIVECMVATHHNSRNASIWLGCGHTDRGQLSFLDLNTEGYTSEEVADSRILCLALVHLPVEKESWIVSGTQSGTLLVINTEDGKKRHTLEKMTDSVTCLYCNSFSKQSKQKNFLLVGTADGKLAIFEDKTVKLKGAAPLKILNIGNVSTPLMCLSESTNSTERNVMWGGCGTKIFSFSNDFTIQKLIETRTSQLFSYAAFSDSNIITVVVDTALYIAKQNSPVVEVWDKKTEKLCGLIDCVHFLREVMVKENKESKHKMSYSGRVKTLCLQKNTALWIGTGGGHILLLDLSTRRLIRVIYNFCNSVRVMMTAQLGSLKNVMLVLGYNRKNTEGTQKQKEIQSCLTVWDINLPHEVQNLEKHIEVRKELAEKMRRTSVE
T19 sequence (P42684 whole entry): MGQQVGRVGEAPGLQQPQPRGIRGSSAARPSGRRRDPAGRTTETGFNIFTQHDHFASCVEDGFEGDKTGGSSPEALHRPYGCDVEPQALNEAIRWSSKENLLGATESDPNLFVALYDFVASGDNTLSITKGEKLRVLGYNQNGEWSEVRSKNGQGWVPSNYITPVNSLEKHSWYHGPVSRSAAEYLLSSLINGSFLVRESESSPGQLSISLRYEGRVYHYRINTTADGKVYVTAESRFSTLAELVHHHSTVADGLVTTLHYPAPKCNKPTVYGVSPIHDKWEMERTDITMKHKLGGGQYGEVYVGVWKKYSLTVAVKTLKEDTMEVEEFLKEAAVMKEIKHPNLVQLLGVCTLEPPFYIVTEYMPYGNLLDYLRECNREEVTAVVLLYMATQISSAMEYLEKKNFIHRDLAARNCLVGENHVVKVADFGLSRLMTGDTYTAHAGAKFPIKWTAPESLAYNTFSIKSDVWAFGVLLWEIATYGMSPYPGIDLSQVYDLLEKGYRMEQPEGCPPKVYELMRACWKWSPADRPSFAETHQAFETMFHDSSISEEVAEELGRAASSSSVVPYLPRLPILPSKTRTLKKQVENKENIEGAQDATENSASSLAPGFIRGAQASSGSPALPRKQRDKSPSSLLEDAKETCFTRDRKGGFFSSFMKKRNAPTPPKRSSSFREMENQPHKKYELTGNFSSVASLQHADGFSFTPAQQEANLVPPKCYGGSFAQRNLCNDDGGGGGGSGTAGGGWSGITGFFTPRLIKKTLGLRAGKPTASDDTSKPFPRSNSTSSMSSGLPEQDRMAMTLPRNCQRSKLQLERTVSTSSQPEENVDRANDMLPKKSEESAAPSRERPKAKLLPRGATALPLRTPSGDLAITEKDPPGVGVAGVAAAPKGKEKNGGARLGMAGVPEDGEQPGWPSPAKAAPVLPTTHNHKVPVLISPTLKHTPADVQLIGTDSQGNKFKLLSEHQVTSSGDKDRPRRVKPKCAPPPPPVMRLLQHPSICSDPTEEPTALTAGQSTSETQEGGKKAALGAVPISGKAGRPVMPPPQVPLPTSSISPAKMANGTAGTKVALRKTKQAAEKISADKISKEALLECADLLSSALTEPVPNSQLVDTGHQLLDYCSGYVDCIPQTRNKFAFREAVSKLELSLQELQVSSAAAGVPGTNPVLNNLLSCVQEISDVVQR
T29 sequence (Q6P5Z2 whole entry): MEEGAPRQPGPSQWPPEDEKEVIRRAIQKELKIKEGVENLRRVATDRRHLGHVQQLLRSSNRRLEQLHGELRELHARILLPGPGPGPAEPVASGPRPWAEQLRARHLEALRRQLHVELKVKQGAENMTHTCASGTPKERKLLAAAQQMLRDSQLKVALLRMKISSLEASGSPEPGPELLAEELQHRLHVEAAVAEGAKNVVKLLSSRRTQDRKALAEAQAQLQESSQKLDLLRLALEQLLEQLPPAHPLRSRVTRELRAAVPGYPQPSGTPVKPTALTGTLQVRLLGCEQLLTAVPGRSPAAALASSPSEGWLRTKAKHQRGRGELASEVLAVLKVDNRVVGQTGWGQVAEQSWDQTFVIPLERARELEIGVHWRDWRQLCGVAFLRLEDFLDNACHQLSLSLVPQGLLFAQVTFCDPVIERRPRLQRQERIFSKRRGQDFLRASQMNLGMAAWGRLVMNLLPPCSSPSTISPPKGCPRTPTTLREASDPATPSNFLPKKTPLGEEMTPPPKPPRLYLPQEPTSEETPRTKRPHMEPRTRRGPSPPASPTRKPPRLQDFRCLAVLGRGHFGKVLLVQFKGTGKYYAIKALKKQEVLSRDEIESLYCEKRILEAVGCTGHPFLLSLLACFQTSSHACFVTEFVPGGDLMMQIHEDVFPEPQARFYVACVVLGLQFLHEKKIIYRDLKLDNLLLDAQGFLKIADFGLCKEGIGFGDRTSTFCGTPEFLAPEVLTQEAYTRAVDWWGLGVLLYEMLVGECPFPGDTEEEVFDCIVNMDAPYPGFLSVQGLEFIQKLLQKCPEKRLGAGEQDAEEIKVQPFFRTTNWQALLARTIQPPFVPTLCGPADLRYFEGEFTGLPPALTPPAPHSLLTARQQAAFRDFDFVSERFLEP

## COc1cc(Nc2ncnc(Nc3cc4c(cn3)NC(=O)C(C)(C)O4)n2)cc(OC)c1OC [MT-SYK-03]
YES/YES1
  remaining activity at 0.5 µM: 11.6%
YES/YES1; [1]
  IC50: 3.5 nM
YES/YES1; read-out: Inhibition at 500 nM
  inhibition at 0.5 µM: > 90%
WNK2
  remaining activity at 0.5 µM: 84.6%
c-MER
  remaining activity at 0.5 µM: 109%
KHS/MAP4K5
  remaining activity at 0.5 µM: 91.8%
BTK
  remaining activity at 0.5 µM: 51.3%
MEKK2
  remaining activity at 0.5 µM: 106%
TBK1
  remaining activity at 0.5 µM: 66.8%
PIM2
  remaining activity at 0.5 µM: 97.2%
EPHA8
  Residual enzymatic activity: 99.7%
TAK1
  remaining activity at 0.5 µM: 103%
PLK1
  remaining activity at 0.5 µM: 93.4%
CDK1/cyclin B
  remaining activity at 0.5 µM: 96%
GSK3b
  remaining activity at 0.5 µM: 82.4%
STK39/STLK3
  remaining activity at 0.5 µM: 107%
MST2/STK3
  remaining activity at 0.5 µM: 105%
CK1g3
  remaining activity at 0.5 µM: 72.2%
c-Kit
  Residual enzymatic activity: 69.2%
  remaining activity at 0.5 µM: > 54%
CLK3
  remaining activity at 0.5 µM: 103%
ABL2/ARG
  remaining activity at 0.5 µM: 32.3%
ABL2/ARG; [1]
  IC50: 120 nM
GRK6
  remaining activity at 0.5 µM: 100%
CDK16/cyclin Y
  remaining activity at 0.5 µM: 95.8%
TYRO3/SKY
  remaining activity at 0.5 µM: 104%
TYK1/LTK
  remaining activity at 0.5 µM: 92%
MINK/MINK1
  remaining activity at 0.5 µM: 92%
MNK2
  remaining activity at 0.5 µM: 78.6%
PKCnu/PRKD3
  remaining activity at 0.5 µM: 99.9%
PKCepsilon
  remaining activity at 0.5 µM: 106%
LRRK2
  remaining activity at 0.5 µM: 48%
LRRK2; [1]
  IC50: 206 nM
PKN3/PRK3
  remaining activity at 0.5 µM: 90%

## COc1cc(Nc2ncc(F)c(Nc3ccc4c(n3)NC(=O)C(C)(C)O4)n2)cc(OC)c1OC [R406, reference compound]
YES/YES1
  remaining activity at 0.5 µM: 10.1%
WNK2
  remaining activity at 0.5 µM: 95.2%
c-MER
  remaining activity at 0.5 µM: 73.9%
KHS/MAP4K5
  remaining activity at 0.5 µM: 87.1%
BTK
  remaining activity at 0.5 µM: 28.8%
MEKK2
  remaining activity at 0.5 µM: 56.8%
TBK1
  remaining activity at 0.5 µM: 13.9%
PIM2
  remaining activity at 0.5 µM: 95.6%
EPHA8; read-out: Residual enzymatic activity
  remaining activity at 0.5 µM: 92.6%
TAK1
  remaining activity at 0.5 µM: 48.3%
PLK1
  remaining activity at 0.5 µM: 60.4%
CDK1/cyclin B
  remaining activity at 0.5 µM: 75.6%
GSK3b
  remaining activity at 0.5 µM: 37.9%
STK39/STLK3
  remaining activity at 0.5 µM: 107%
MST2/STK3
  remaining activity at 0.5 µM: 97.9%
CK1g3
  remaining activity at 0.5 µM: 79.6%
c-Kit
  remaining activity at 0.5 µM: 37.1%
CLK3
  remaining activity at 0.5 µM: 89.4%
ABL2/ARG
  remaining activity at 0.5 µM: 34.5%
GRK6
  remaining activity at 0.5 µM: 92.7%
CDK16/cyclin Y
  remaining activity at 0.5 µM: 63.3%
TYRO3/SKY
  remaining activity at 0.5 µM: 94.6%
TYK1/LTK
  remaining activity at 0.5 µM: 30.2%
MINK/MINK1
  remaining activity at 0.5 µM: 87.3%
MNK2
  remaining activity at 0.5 µM: 37.9%
PKCnu/PRKD3
  remaining activity at 0.5 µM: 72.8%
PKCepsilon
  remaining activity at 0.5 µM: 95%
LRRK2
  remaining activity at 0.5 µM: 5.5%
PKN3/PRK3
  remaining activity at 0.5 µM: 40.8%
